Assays:
[1] = molecular target: T1, GDP-loaded KRAS (1-169) G12C, C51S, C80L, C118S (Homo sapiens, UniProt P01116, C118S/C51S/C80L/G12C); experiment: Mass Spectrometry Reactivity Assay (MSRA): covalent adduct of compound and KRAS G12C, Percent Modification; format: binding; conditions: for MSRA (% modification) 10 μM 0.25 hr / MSRA (% modification) 10 μM 0.50 hr: 10 μM compound; for MSRA (% modification) 5.0 μM 0.25 hr: 5.0 μM compound
T1 construct: GDP-loaded KRAS (1-169) G12C, C51S, C80L, C118S
How it was run: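 GDP-loaded KRAS(1-169) G12C/C51S/C80L/C118S at 5 μM in 25 mM Hepes pH 7.5, 200 mM NaCl, 5% glycerol incubated at RT with compound (typically 5 or 10 μM final, 1% DMSO). Quenched in formic acid at 1-60 min; intact-protein LC-TOF MS gives % modification = modified/(modified+unmodified).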

KRAS G12C [2] = molecular target: T2, KRAS G12C (Homo sapiens, UniProt P01116, G12C); experiment: Cell Activity Assay: IC50 in H358 cells; format: cell-based; parameters: endogenous in cells
Method: Compounds presented in the present invention lead to the accumulation of the GDP bound Ras upon treatment of human cancer cell line.
The accumulation of the GDP-bound KRAS G12C in cellular environment was measured based on the principle that KRAS G12C only binds to its downstream kinase; Raf-1 (MAP Kinase Kinase Kinase), when in its active-GTP bound state. In this state, Ras binded to a domain of Raf-1 kinase referred to as the Ras Binding Domain (RBD).
Raf-1 RBD (LJIC-1988A1) was diluted to 100 ng/well in PBS and 5 μl/well was spot coated onto MSD high bind SECTOR plates (L15XB). Plates were incubated at room temperature for 1 hour on an orbital shaker. Plates were washed with PBS/0.05% Tween-20 and 50 μl/well of thawed lysate samples were added, followed by 50 μl of 1% MSD Blocker A in PBS/0.05 Tween-20 (R93BA). Plates were incubated for 1 hour on an orbital shaker and washed with PBS/0.05% Tween-20. 25 μl/well of Anti-pan-Ras Antibody (Cell Biolabs 244003) diluted 1:3000 was added in 1% MSD Blocker A solution and plates were incubated for 1 hour on an orbital shaker and washed with PBS/0.05% Tween-20. SULFO-TAG goat anti-mouse secondary antibody (MSD R32AC) was diluted 1:500 in MSD Blocker A solution and added at 25 μL/well. Plates were incubated for 1 hour on an orbital shaker and washed with PBS/0.05% Tween-20. 150 μl/well of Read Buffer T (MSD R92TC) diluted 1:3 in H2O was added and plates were read on a Meso Scale Discovery Sector Imager S600.
KRAS signal was normalized to maximum inhibition and DMSO control values, and IC50 values were generated using a 4 parameter fit of the dose response curve. The decrease in IC50 reflects that the exemplary compound lead to a higher level of accumulation of GDP-bound KRAS G12C than another exemplary compounds at specific timepoint of treatment of cancer cell line.

KRAS G12C [3] = molecular target: T2, KRAS G12C; experiment: Cell Activity Assay: accumulation of GDP-bound KRAS G12C in MIAPaCa-2 cells (Raf-1 RBD capture, MSD readout); format: cell-based; parameters: endogenous in cells; host or cells: MIAPaCa-2; conditions: 6 hours, assay limit is 30.00
How it was run: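 MIAPaCa-2 cells exposed 6 h at 37 °C to 3-fold compound dilutions (0.3% DMSO final), then lysed. Active GTP-KRAS captured on Raf-1 RBD-coated plates, detected with anti-pan-Ras and SULFO-TAG secondary by MSD electrochemiluminescence. Signal normalized to DMSO and maximum inhibition; IC50 from 4-parameter fit.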

**Q.** Which “MSRA (% modification) 10 μM 0.25 hr” value [1] does the source give for `C=CC(=O)N1CCN(c2nc(OC[C@@H]3CN(C)C[C@H]3OC)nc3c(Oc4c(Cl)c(F)cc5[nH]ncc45)nc(Cl)cc23)CC1` [Example 19G, 1-[4-(6-chloro-8-[(5-chloro-6-fluoro-1H-indazol-4-yl)oxy]-2-{[(3S,4S)-4-methoxy-1-methylpyrrolidin-3-yl]methoxy}pyrido[3,4-d]pyrimidin-4-yl)piperazin-1-yl]prop-2-en-1-one] here?
**A.** 60%

**Q.** And the IC50 (KRAS G12C [2])?
**A.** 0.109 µM

**Q.** And the IC50 (KRAS G12C [3])?
**A.** 0.051 µM

**Q.** How did the “MSRA (% modification) 5.0 μM 0.25 hr” value [1] turn out when `C=CC(=O)N1CCN(c2nc(OC[C@@H]3CCCN3C)nc3c(Oc4c(C)ccc5[nH]ncc45)cccc23)CC1` [Example 07E, 1-[4-(8-[(5-methyl-1H-indazol-4-yl)oxy]-2-{[(2S)-1-methylpyrrolidin-2-yl]methoxy}quinazolin-4-yl)piperazin-1-yl]prop-2-en-1-one] was run?
**A.** 67%

**Q.** And the “MSRA (% modification) 10 μM 0.25 hr” value [1]?
**A.** 79%

**Q.** What about the “MSRA (% modification) 10 μM 0.50 hr” value [1] of the same compound?
**A.** 82%

**Q.** And the IC50 (KRAS G12C [2])?
**A.** 0.501 µM

**Q.** And the IC50 (KRAS G12C [3])?
**A.** 0.23 µM

**Q.** `C=CC(=O)N1CCN(c2ncnc3c(Oc4c(Cl)c(F)cc5[nH]ncc45)nc(Cl)cc23)CC1` [Example 20A, 1-(4-{6-chloro-8-[(5-chloro-6-fluoro-1H-indazol-4-yl)oxy]pyrido[3,4-d]pyrimidin-4-yl}piperazin-1-yl)prop-2-en-1-one] was tested. Which “MSRA (% modification) 5.0 μM 0.25 hr” value [1] did it give?
**A.** 85%

**Q.** And the “MSRA (% modification) 10 μM 0.25 hr” value [1]?
**A.** 73%

**Q.** And the “MSRA (% modification) 10 μM 0.50 hr” value [1]?
**A.** 80%

**Q.** What about the IC50 (KRAS G12C [2]) of the same compound?
**A.** 0.758 µM

**Q.** What about the IC50 (KRAS G12C [3]) of the same compound?
**A.** 0.255 µM

**Q.** Which results are given for `C=CC(=O)N1CCN(c2nc(OCC3CCCO3)nc3c(Oc4c(Cl)c(F)cc5[nH]ncc45)nc(Cl)cc23)CC1` (stereo not shown) [Example 11G, 1-(4-{6-chloro-8-[(5-chloro-6-fluoro-1H-indazol-4-yl)oxy]-2-(tetrahydrofuran-2-ylmethoxy)pyrido[3,4-d]pyrimidin-4-yl}piperazin-1-yl)prop-2-en-1-one]?
**A.** MSRA (% modification) 10 μM 0.25 hr [1]: 77%; IC50 (KRAS G12C [2]): 0.448 µM; IC50 (KRAS G12C [3]): 0.102 µM

**Q.** Which “MSRA (% modification) 10 μM 0.25 hr” value [1] does the source give for `C=CC(=O)N1CCN(c2nc(OC[C@@H]3CCCN3C)nc3c(Oc4c(Cl)ccc5[nH]ncc45)nc(Cl)cc23)CC1` [Example 09G, 1-[4-(6-chloro-8-[(5-chloro-1H-indazol-4-yl)oxy]-2-{[(2S)-1-methylpyrrolidin-2-yl]methoxy}pyrido[3,4-d]pyrimidin-4-yl)piperazin-1-yl]prop-2-en-1-one] here?
**A.** 81%

**Q.** And the IC50 (KRAS G12C [2])?
**A.** 0.123 µM

**Q.** What about the IC50 (KRAS G12C [3]) of the same compound?
**A.** 0.069 µM

**Q.** For `C=CC(=O)N1CCN(c2nc(N3CC(N(C)C)C3)nc3c(Oc4c(C)ccc5[nH]ncc45)nccc23)CC1` [Example 02B, 1-(4-{2-[3-(dimethylamino)azetidin-1-yl]-8-[(5-methyl-1H-indazol-4-yl)oxy]pyrido[3,4-d]pyrimidin-4-yl}piperazin-1-yl)prop-2-en-1-one], which “MSRA (% modification) 10 μM 0.50 hr” value [1] is on record?
**A.** 30%

**Q.** And the IC50 (KRAS G12C [2])?
**A.** 8.2 µM

**Q.** What about the IC50 (KRAS G12C [3]) of the same compound?
**A.** 7.84 µM

— patent US10662204B2 (PFIZER INC., priority 2018, dated 2020)
